System: 843126-344-R-J1-PDC complex spheroid viability
Experiment: Anticancer human tumor 843126-344-R-J1-PDC patient-derived melanoma cell line growth inhibition [POLQ]
Conditions: for IC50: curve of first compound; for viability, T/C: stronger effect = lower value
Method in brief: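 Three-cell-type spheroids modelling solid tumor plus stroma served as the readout system; POL inhibitors were tested individually and in combination, concentration ranges set by clinical Cmax where known.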

[1] = second compound 0.0316 µM, first compound 0.0316 µM
[2] = second compound 0.0316 µM, first compound 0.1 µM
[3] = second compound 0.0316 µM, first compound 0.316 µM
[4] = second compound 0.0316 µM, first compound 1 µM
[5] = second compound 0.0316 µM, first compound 3.16 µM
[6] = second compound 0.0316 µM, first compound 10 µM
[7] = second compound 0.1 µM, first compound 0.0316 µM
[8] = second compound 0.1 µM, first compound 0.1 µM
[9] = second compound 0.1 µM, first compound 0.316 µM
[10] = second compound 0.1 µM, first compound 1 µM
[11] = second compound 0.1 µM, first compound 3.16 µM
[12] = second compound 0.1 µM, first compound 10 µM
[13] = second compound 0.316 µM, first compound 0.0316 µM
[14] = second compound 0.316 µM, first compound 0.1 µM
[15] = second compound 0.316 µM, first compound 0.316 µM
[16] = second compound 0.316 µM, first compound 1 µM
[17] = second compound 0.316 µM, first compound 3.16 µM
[18] = second compound 0.316 µM, first compound 10 µM
[19] = second compound 1 µM, first compound 0.0316 µM
[20] = second compound 1 µM, first compound 0.1 µM
[21] = second compound 1 µM, first compound 0.316 µM
[22] = second compound 1 µM, first compound 1 µM
[23] = second compound 1 µM, first compound 3.16 µM
[24] = second compound 1 µM, first compound 10 µM
[25] = second compound 3.16 µM, first compound 0.0316 µM
[26] = second compound 3.16 µM, first compound 0.1 µM
[27] = second compound 3.16 µM, first compound 0.316 µM
[28] = second compound 3.16 µM, first compound 1 µM
[29] = second compound 3.16 µM, first compound 3.16 µM
[30] = second compound 3.16 µM, first compound 10 µM
[31] = second compound 10 µM, first compound 0.0316 µM
[32] = second compound 10 µM, first compound 0.1 µM
[33] = second compound 10 µM, first compound 0.316 µM
[34] = second compound 10 µM, first compound 1 µM
[35] = second compound 10 µM, first compound 3.16 µM
[36] = second compound 10 µM, first compound 10 µM
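Throughout, for viability, T/C: spheroids exposed to drugs for seven days before readout.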

Q: Which IC50 (second compound 0.0316 µM) does the source give for `COc1cccc2c1C(=O)c1c(O)c3c(c(O)c1C2=O)CC(O)(C(=O)CO)CC3OC1CC(N)C(O)C(C)O1` (stereo unspecified) + COC1C(OC(N)=O)C(O)C(Oc2ccc3c(O)c(NC(=O)c4ccc(O)c(CC=C(C)C)c4)c(=O)oc3c2C)OC1(C)C here?
A: 0.332 µM

Q: And the IC50 (second compound 0.1 µM)?
A: 0.32 µM

Q: And the IC50 (second compound 0.316 µM)?
A: 0.295 µM

Q: And the IC50 (second compound 1 µM)?
A: 0.328 µM

Q: And the IC50 (second compound 3.16 µM)?
A: 0.404 µM

Q: And the IC50 (second compound 10 µM)?
A: 0.303 µM

Q: What about the viability, T/C [1] of the same molecule?
A: 80%

Q: What about the viability, T/C [2] of the same molecule?
A: 81.3%

Q: What about the viability, T/C [3] of the same molecule?
A: 50.5%

Q: And the viability, T/C [4]?
A: 14.6%

Q: What about the viability, T/C [5] of the same molecule?
A: 4.71%

Q: And the viability, T/C [6]?
A: 3.86%

Q: And the viability, T/C [7]?
A: 84%

Q: And the viability, T/C [8]?
A: 85%

Q: What about the viability, T/C [9] of the same molecule?
A: 49.2%

Q: And the viability, T/C [10]?
A: 13.5%

Q: What about the viability, T/C [11] of the same molecule?
A: 3.97%

Q: What about the viability, T/C [12] of the same molecule?
A: 3.88%

Q: What about the viability, T/C [13] of the same molecule?
A: 103%

Q: And the viability, T/C [14]?
A: 71.8%

Q: What about the viability, T/C [15] of the same molecule?
A: 58%

Q: What about the viability, T/C [16] of the same molecule?
A: 14.1%

Q: And the viability, T/C [17]?
A: 4.21%

Q: And the viability, T/C [18]?
A: 4.82%

Q: What about the viability, T/C [19] of the same molecule?
A: 98.3%

Q: What about the viability, T/C [20] of the same molecule?
A: 77.2%

Q: What about the viability, T/C [21] of the same molecule?
A: 56.2%

Q: What about the viability, T/C [22] of the same molecule?
A: 13%

Q: And the viability, T/C [23]?
A: 4.55%

Q: And the viability, T/C [24]?
A: 3.9%

Q: What about the viability, T/C [25] of the same molecule?
A: 87.6%

Q: And the viability, T/C [26]?
A: 77%

Q: What about the viability, T/C [27] of the same molecule?
A: 60.2%

Q: What about the viability, T/C [28] of the same molecule?
A: 16%

Q: And the viability, T/C [29]?
A: 5.73%

Q: And the viability, T/C [30]?
A: 4.31%

Q: And the viability, T/C [31]?
A: 88.6%

Q: What about the viability, T/C [32] of the same molecule?
A: 77.6%

Q: What about the viability, T/C [33] of the same molecule?
A: 49.9%

Q: What about the viability, T/C [34] of the same molecule?
A: 15%

Q: And the viability, T/C [35]?
A: 4.64%

Q: What about the viability, T/C [36] of the same molecule?
A: 3.44%

Q: How did the IC50 (second compound 0.0316 µM) turn out when `C#Cc1c(F)ccc2cc(O)cc(-c3ncc4c(N5CC6CCC(C5)N6)nc(OCC56CCCN5CC(F)C6)nc4c3F)c12` (stereo unspecified) + Cc1cccc(N(C)C(=O)C2C(O)CCN2c2nc(C)cc(C(F)(F)F)c2C#N)c1 was run?
A: > 10 µM

Q: What about the IC50 (second compound 0.1 µM) of the same molecule?
A: > 10 µM

Q: And the IC50 (second compound 0.316 µM)?
A: > 10 µM

Q: And the IC50 (second compound 1 µM)?
A: > 10 µM

Q: What about the IC50 (second compound 3.16 µM) of the same molecule?
A: > 10 µM

Q: What about the IC50 (second compound 10 µM) of the same molecule?
A: > 10 µM

Q: What about the viability, T/C [1] of the same molecule?
A: 88%

Q: What about the viability, T/C [2] of the same molecule?
A: 81.1%

Q: And the viability, T/C [3]?
A: 79.9%

Q: What about the viability, T/C [4] of the same molecule?
A: 71.3%

Q: And the viability, T/C [5]?
A: 95.8%

Q: What about the viability, T/C [6] of the same molecule?
A: 74%

Q: What about the viability, T/C [7] of the same molecule?
A: 103%

Q: What about the viability, T/C [8] of the same molecule?
A: 98.6%

Q: What about the viability, T/C [9] of the same molecule?
A: 92.9%

Q: And the viability, T/C [10]?
A: 76%

Q: And the viability, T/C [11]?
A: 118%

Q: And the viability, T/C [12]?
A: 79.6%

Q: What about the viability, T/C [13] of the same molecule?
A: 96.1%

Q: What about the viability, T/C [14] of the same molecule?
A: 105%

Q: And the viability, T/C [15]?
A: 91.2%

Q: And the viability, T/C [16]?
A: 80.2%

Q: What about the viability, T/C [17] of the same molecule?
A: 75.4%

Q: What about the viability, T/C [18] of the same molecule?
A: 77.4%

Q: What about the viability, T/C [19] of the same molecule?
A: 77.1%

Q: What about the viability, T/C [20] of the same molecule?
A: 106%

Q: What about the viability, T/C [21] of the same molecule?
A: 82.8%

Q: And the viability, T/C [22]?
A: 89.9%

Q: And the viability, T/C [23]?
A: 91.2%

Q: And the viability, T/C [24]?
A: 79%

Q: And the viability, T/C [25]?
A: 83.5%

Q: What about the viability, T/C [26] of the same molecule?
A: 80.3%

Q: And the viability, T/C [27]?
A: 87.3%

Q: What about the viability, T/C [28] of the same molecule?
A: 93.7%

Q: And the viability, T/C [29]?
A: 82.7%

Q: And the viability, T/C [30]?
A: 69.8%

Q: And the viability, T/C [31]?
A: 102%

Q: And the viability, T/C [32]?
A: 80.1%

Q: What about the viability, T/C [33] of the same molecule?
A: 95.5%

Q: What about the viability, T/C [34] of the same molecule?
A: 85.9%

Q: And the viability, T/C [35]?
A: 91.6%

Q: What about the viability, T/C [36] of the same molecule?
A: 61.8%

Q: For `CCc1c2c(nc3ccc(O)cc13)-c1cc3c(c(=O)n1C2)COC(=O)[C@]3(O)CC` + COC1C(OC(N)=O)C(O)C(Oc2ccc3c(O)c(NC(=O)c4ccc(O)c(CC=C(C)C)c4)c(=O)oc3c2C)OC1(C)C, which IC50 (second compound 0.0316 µM) is on record?
A: > 1 µM

Q: What about the IC50 (second compound 0.1 µM) of the same molecule?
A: > 1 µM

Q: What about the IC50 (second compound 0.316 µM) of the same molecule?
A: > 1 µM

Q: And the IC50 (second compound 1 µM)?
A: 0.429 µM

Q: What about the IC50 (second compound 3.16 µM) of the same molecule?
A: 0.242 µM

Q: And the IC50 (second compound 10 µM)?
A: 0.485 µM

Q: And the viability, T/C (second compound 0.0316 µM, first compound 0.00316 µM)?
A: 63.2%

Q: What about the viability, T/C (second compound 0.0316 µM, first compound 0.01 µM) of the same molecule?
A: 59.4%

Q: And the viability, T/C [1]?
A: 65.9%

Q: What about the viability, T/C [2] of the same molecule?
A: 64.5%

Q: And the viability, T/C [3]?
A: 63.1%

Q: And the viability, T/C [4]?
A: 42.7%

Q: And the viability, T/C (second compound 0.1 µM, first compound 0.00316 µM)?
A: 66.5%

Q: What about the viability, T/C (second compound 0.1 µM, first compound 0.01 µM) of the same molecule?
A: 52.1%

Q: What about the viability, T/C [7] of the same molecule?
A: 71.4%

Q: What about the viability, T/C [8] of the same molecule?
A: 69.2%

Q: And the viability, T/C [9]?
A: 63.8%

Q: And the viability, T/C [10]?
A: 48.6%

Q: What about the viability, T/C (second compound 0.316 µM, first compound 0.00316 µM) of the same molecule?
A: 70.5%

Q: What about the viability, T/C (second compound 0.316 µM, first compound 0.01 µM) of the same molecule?
A: 59.4%

Q: What about the viability, T/C [13] of the same molecule?
A: 64.9%

Q: What about the viability, T/C [14] of the same molecule?
A: 64.8%

Q: What about the viability, T/C [15] of the same molecule?
A: 73%

Q: And the viability, T/C [16]?
A: 50.3%

Q: What about the viability, T/C (second compound 1 µM, first compound 0.00316 µM) of the same molecule?
A: 66.7%

Q: What about the viability, T/C (second compound 1 µM, first compound 0.01 µM) of the same molecule?
A: 48.2%

Q: And the viability, T/C [19]?
A: 50.9%

Q: And the viability, T/C [20]?
A: 70.6%

Q: And the viability, T/C [21]?
A: 48.6%

Q: And the viability, T/C [22]?
A: 40.5%

Q: What about the viability, T/C (second compound 3.16 µM, first compound 0.00316 µM) of the same molecule?
A: 66.9%

Q: What about the viability, T/C (second compound 3.16 µM, first compound 0.01 µM) of the same molecule?
A: 63.7%

Q: And the viability, T/C [25]?
A: 73.3%

Q: What about the viability, T/C [26] of the same molecule?
A: 57.1%

Q: What about the viability, T/C [27] of the same molecule?
A: 50.9%

Q: And the viability, T/C [28]?
A: 44.8%

Q: And the viability, T/C (second compound 10 µM, first compound 0.00316 µM)?
A: 59.9%

Q: And the viability, T/C (second compound 10 µM, first compound 0.01 µM)?
A: 62.7%

Q: And the viability, T/C [31]?
A: 56.3%

Q: And the viability, T/C [32]?
A: 67.5%

Q: What about the viability, T/C [33] of the same molecule?
A: 50%

Q: And the viability, T/C [34]?
A: 43%
